The format of data set [1] is physicochemical. The procedure: (§1) At ambient temperature, a 3 mL ethanol solution of budesonide (0.007 M) was mixed with 0.1 g of aluminum oxide (Aldrich, neutral, activated Brockmann I, 150 mesh), which mimics aluminum oxide existing on the inner surface of aluminum containers. Each aliquot was filtered with a syringe filter and diluted with acetonitrile by 20 times for HPLC analysis to determine the recovery of budesonide with respect to the initial concentration. The recoveries of budesonide were compared with a reference, which contained the same concentration of budesonide but in ethanol solution without aluminum oxide.
as §1, with “triamcinolone acetonide” for “budesonide”
as §1, with “dexamethasone” for “budesonide”, “aliquote” for “aliquot”, “recoveries” for “recovery”, “inital” for “initial”

For data set [2] the following is noted: cited from earlier work; for Chemical stability of solution MDI formulation (in words): solution formulations, HFC propellant, prior publications.
Data set [3] in a line: Solubility testing of budesonide in P134a and P227 formulations at approximately 5° C. In kind it is physicochemical.

The structures appear in SMILES notation.

As for `CCC(=O)O[C@]1(C(=O)CO)[C@@H](C)C[C@H]2[C@@H]3CCC4=CC(=O)C=C[C@]4(C)[C@@]3(Cl)[C@@H](O)C[C@@]21C` [beclomethasone 17-monopropionate], in data set [1], the “Degradation rate in ethanol/Al2O3 relative to isomer 21-BMP (17-OH)” value is on record as “about 100 times”.
Regarding `CCC(=O)OCC(=O)[C@@]1(OC(=O)CC)[C@@H](C)C[C@H]2[C@@H]3CCC4=CC(=O)C=C[C@]4(C)[C@@]3(Cl)[C@@H](O)C[C@@]21C` [beclomethasone dipropionate], in data set [2], the “Chemical stability of solution MDI formulation (in words)” value is on record as “surprisingly chemically stable”.
Consider `CCCC1O[C@@H]2C[C@H]3[C@@H]4CCC5=CC(=O)C=C[C@]5(C)[C@H]4[C@@H](O)C[C@]3(C)[C@]2(C(=O)CO)O1` (stereo partly drawn) [budesonide], for which the “Budesonide Solubility, MEAN” value was 0.012 mg/g in data set [3] (P134a, 5° C.); 0.465 mg/g in data set [3] (P134a/5% EtOH, 5° C.); 1.382 mg/g in data set [3] (P134a/10% EtOH, 5° C.); 2.699 mg/g in data set [3] (P134a/15% EtOH, 5° C.); 4.360 mg/g in data set [3] (P134a/20% EtOH, 5° C.); 0.016 mg/g in data set [3] (P227, 5° C.). Moreover, the “Budesonide Solubility, MEAN” value came out at 0.657 mg/g in data set [3] (P227/5% EtOH, 5° C.); 1.703 mg/g in data set [3] (P227/10% EtOH, 5° C.); 2.98 mg/g in data set [3] (P227/15% EtOH, 5° C.); 4.435 mg/g in data set [3] (P227/20% EtOH, 5° C.). Also, the “Budesonide Solubility, sample 1” value turned out to be 0.013 mg/g in data set [3] (P134a, 5° C.); 0.459 mg/g in data set [3] (P134a/5% EtOH, 5° C.); 1.370 mg/g in data set [3] (P134a/10% EtOH, 5° C.); 2.686 mg/g in data set [3] (P134a/15% EtOH, 5° C.); 4.329 mg/g in data set [3] (P134a/20% EtOH, 5° C.); 0.017 mg/g in data set [3] (P227, 5° C.). Moreover, the “Budesonide Solubility, sample 1” value in data set [3] (P227/5% EtOH, 5° C.) is on record as 0.652 mg/g; in data set [3] (P227/10% EtOH, 5° C.) it was 1.698 mg/g; in data set [3] (P227/15% EtOH, 5° C.), 2.952 mg/g; in data set [3] (P227/20% EtOH, 5° C.), 4.387 mg/g. The “Budesonide Solubility, sample 2” value turned out to be 0.010 mg/g in data set [3] (P134a, 5° C.); 0.471 mg/g in data set [3] (P134a/5% EtOH, 5° C.); 1.394 mg/g in data set [3] (P134a/10% EtOH, 5° C.); 2.711 mg/g in data set [3] (P134a/15% EtOH, 5° C.); 4.390 mg/g in data set [3] (P134a/20% EtOH, 5° C.); 0.015 mg/g in data set [3] (P227, 5° C.). Also, the “Budesonide Solubility, sample 2” value came to 0.661 mg/g in data set [3] (P227/5% EtOH, 5° C.); 1.707 mg/g in data set [3] (P227/10% EtOH, 5° C.); 3.008 mg/g in data set [3] (P227/15% EtOH, 5° C.); 4.483 mg/g in data set [3] (P227/20% EtOH, 5° C.). The “Degradation in the presence of aluminum oxide (in words)” value in data set [1] is reported as “almost totally consumed”.
As to `CC(C)C(=O)OCC(=O)[C@@]12O[C@H](C3CCCCC3)O[C@@H]1C[C@H]1[C@@H]3CCC4=CC(=O)C=C[C@]4(C)[C@H]3[C@@H](O)C[C@@]12C` [ciclesonide], the “Chemical stability of solution MDI formulation (in words)” value in data set [2] is recorded as “surprisingly chemically stable”.
Consider `C[C@@H]1C[C@H]2[C@@H]3CCC4=CC(=O)C=C[C@]4(C)[C@@]3(F)[C@@H](O)C[C@]2(C)[C@@]1(O)C(=O)CO` [dexamethasone], for which the “Degradation in the presence of aluminum oxide (in words)” value in data set [1] is “completely degrades”.
For `CC1(C)O[C@@H]2C[C@H]3[C@@H]4CCC5=CC(=O)C=C[C@]5(C)[C@@]4(F)[C@@H](O)C[C@]3(C)[C@]2(C(=O)CO)O1` [triamcinolone acetonide], the “Degradation in aqueous formulations (in words)” value in data set [2] (aqueous formulations in neutral or basic solutions, WO96/40042) was “undergo oxidative degradation catalyzed by trace levels of metal ions”.

Source of the values: patent US6610273B2, “Process for making chemically stable C-17/21 OH 20-ketosteroid aerosol products” (3M Innovative Properties Company, priority 1999, dated 2003).
